Blank lines part the entries; values can stand above or below the compound they belong to.
Biological target: T1, recombinant guanylate cyclase reporter cell line (Rattus norvegicus, UniProt P19686+P20595)
T1 construct: expressed in transfected cells
T1 sequence (P20595 1-619): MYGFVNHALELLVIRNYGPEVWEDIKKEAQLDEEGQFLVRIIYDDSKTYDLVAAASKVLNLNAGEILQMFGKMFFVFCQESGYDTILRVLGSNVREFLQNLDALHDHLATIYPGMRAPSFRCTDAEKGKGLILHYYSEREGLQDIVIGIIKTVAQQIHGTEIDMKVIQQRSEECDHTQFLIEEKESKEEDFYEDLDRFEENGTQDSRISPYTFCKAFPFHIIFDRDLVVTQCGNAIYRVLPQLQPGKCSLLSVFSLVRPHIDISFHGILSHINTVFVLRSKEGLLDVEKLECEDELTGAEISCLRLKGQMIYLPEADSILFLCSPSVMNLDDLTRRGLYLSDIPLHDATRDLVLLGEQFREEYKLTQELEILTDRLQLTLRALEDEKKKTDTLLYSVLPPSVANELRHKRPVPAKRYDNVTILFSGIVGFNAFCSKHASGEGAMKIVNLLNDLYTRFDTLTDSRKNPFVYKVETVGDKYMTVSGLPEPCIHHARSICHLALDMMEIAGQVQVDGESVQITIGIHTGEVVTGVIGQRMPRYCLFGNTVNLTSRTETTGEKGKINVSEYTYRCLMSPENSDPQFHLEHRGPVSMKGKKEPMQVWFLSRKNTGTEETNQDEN
T1 sequence (P19686 1-690): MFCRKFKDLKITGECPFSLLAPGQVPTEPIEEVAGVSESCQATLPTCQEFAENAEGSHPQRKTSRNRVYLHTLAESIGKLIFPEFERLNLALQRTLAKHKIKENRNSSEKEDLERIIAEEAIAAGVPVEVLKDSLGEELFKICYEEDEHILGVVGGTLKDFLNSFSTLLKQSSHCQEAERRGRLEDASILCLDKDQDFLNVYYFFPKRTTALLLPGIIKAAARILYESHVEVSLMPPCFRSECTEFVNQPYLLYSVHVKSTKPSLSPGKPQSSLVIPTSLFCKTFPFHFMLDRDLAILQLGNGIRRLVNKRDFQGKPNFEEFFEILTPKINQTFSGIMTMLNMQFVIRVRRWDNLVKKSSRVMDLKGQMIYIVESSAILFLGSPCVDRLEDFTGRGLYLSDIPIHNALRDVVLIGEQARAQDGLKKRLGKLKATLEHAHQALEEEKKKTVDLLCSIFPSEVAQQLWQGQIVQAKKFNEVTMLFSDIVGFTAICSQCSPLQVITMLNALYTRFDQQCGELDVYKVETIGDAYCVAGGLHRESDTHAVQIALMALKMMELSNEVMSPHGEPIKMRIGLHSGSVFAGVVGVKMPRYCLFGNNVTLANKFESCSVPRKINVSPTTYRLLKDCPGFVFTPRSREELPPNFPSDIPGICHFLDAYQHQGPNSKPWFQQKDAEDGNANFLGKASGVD
Assay: B-2. Action on recombinant guanylate cyclase reporter cell line
Format: cell-based
Conditions: MEC = minimal effective concentration; in some cases mean values from individual determinations
Protocol: B-2. Action on Recombinant Guanylate Cyclase Reporter Cell Line
The cellular action of the compounds according to the invention is determined on a recombinant guanylate cyclase reporter cell line, as described in F. Wunder et al., Anal. Biochem. 339, 104-112 (2005).
Representative MEC values (MEC=minimal effective concentration) for the compounds according to the invention are shown in the following table (in some cases as mean values obtained from individual determinations): […]

SMILES: Cc1nc2c(OCc3c(F)cccc3F)cccn2c1C(=O)NC1CNc2ccccc2C1 (racemic) [Example 75, rac-8-[(2,6-Difluorobenzyl)oxy]-2-methyl-N-(1,2,3,4-tetrahydroquinolin-3-yl)imidazo[1,2-a]-pyridine-3-carboxamide]
MEC: 1.00 µM

SMILES: Cc1cc(OCc2c(F)cccc2F)c2nc(C)c(C(=O)NC3CNc4ccccc4C3)n2c1 (racemic) [Example 76, rac-8-[(2,6-difluorobenzyl)oxy]-2,6-dimethyl-N-(1,2,3,4-tetrahydroquinolin-3-yl)imidazo[1,2-a]-pyridine-3-carboxamide]
MEC: 0.30 µM

SMILES: Cc1cc(OCc2c(F)cccc2F)c2nc(C)c(C(=O)NC(C)C3CCN(C)CC3)n2c1 (racemic) [Example 77, rac-8-[(2,6-difluorobenzyl)oxy]-2,6-dimethyl-N-[1-(1-methylpiperidin-4-yl)ethyl]imidazo[1,2-a]-pyridine-3-carboxamide]
MEC: 1.00 µM

SMILES: Cc1nc2c(OCc3c(F)cccc3F)cc(Cl)cn2c1C(=O)NC(C)C1CCN(C)CC1 (racemic) [Example 78, rac-6-chloro-8-[(2,6-difluorobenzyl)oxy]-2-methyl-N-[1-(1-methylpiperidin-4-yl)ethyl]-imidazo[1,2-a]pyridine-3-carboxamide]
MEC: 1.00 µM

SMILES: Cc1nc2c(OCc3c(F)cccc3F)cccn2c1C(=O)NCC1NCCc2ccccc21 (racemic) [Example 80, rac-8-[(2,6-difluorobenzyl)oxy]-2-methyl-N-(1,2,3,4-tetrahydroisoquinolin-1-ylmethyl)-imidazo[1,2-a]pyridine-3-carboxamide]
MEC: 1.00 µM

SMILES: Cc1nc2c(OCc3c(F)cccc3F)cccn2c1C(=O)NC1CCCN(C)C1 (racemic) [Example 84, rac-8-[(2,6-difluorobenzyl)oxy]-2-methyl-N-(1-methylpiperidin-3-yl)imidazo[1,2-a]-pyridine-3-carboxamide]
MEC: 1.00 µM

SMILES: Cc1nc2c(OCc3c(F)cccc3F)cccn2c1C(=O)NC1CCN(Cc2ccccc2)C1 (racemic) [Example 85, rac-N-(1-benzylpyrrolidin-3-yl)-8-[(2,6-difluoro-benzyl)oxy]-2-methylimidazo[1,2-a]-pyridine-3-carboxamide]
MEC: 1.00 µM

SMILES: Cc1nc2c(OCc3c(F)cccc3F)cc(Cl)cn2c1C(=O)NCC1CCCCN1 (racemic) [Example 118, rac-6-chloro-8-[(2,6-difluorobenzyl)oxy]-2-methyl-N-(piperidin-2-ylmethyl)imidazo[1,2-a]-pyridine-3-carboxamide]
MEC: 1.00 µM

SMILES: Cc1nc2c(OCc3c(F)cccc3F)cccn2c1C(=O)NC12CNCCC1C2 (racemic) [Example 125, rac-N-(3-Azabicyclo[4.1.0]hept-1-yl)-8-[(2,6-difluorobenzyl)oxy]-2-methylimidazo[1,2-a]-pyridine-3-carboxamide]
MEC: 1.00 µM

SMILES: Cc1nc2c(OCc3c(F)cccc3F)cccn2c1C(=O)NCC(C)N1CCOCC1 (racemic) [Example 132, rac-8-[(2,6-difluorobenzyl)oxy]-2-methyl-N-[2-(morpholin-4-yl)propyl]imidazo[1,2-a]pyridine-3-carboxamide]
MEC: 1.00 µM

SMILES: Cc1nc2c(OCc3c(F)cccc3F)cccn2c1C(=O)NC(CN1CCOCC1)c1ccccc1 (racemic) [Example 134, rac-8-[(2,6-difluorobenzyl)oxy]-2-methyl-N-[2-(morpholin-4-yl)-1-phenylethyl]imidazo[1,2-a] - pyridine-3-carboxamide]
MEC: 3.00 µM

SMILES: Cc1cc(OCc2c(F)cccc2F)c2nc(C)c(C(=O)NCCNC(C)C)n2c1 (racemic) [Example 135, rac-8-[(2,6-difluorobenzyl)oxy]-N-[2-(isopropylamino)ethyl]-2,6-dimethylimidazo[1,2-a]pyridine-3-carboxamide]
MEC: 1.00 µM

SMILES: Cc1cc(OCc2c(F)cccc2F)c2nc(C)c(C(=O)NCC(C)N3CCOCC3)n2c1 (racemic) [Example 138, rac-8-[(2,6-difluorobenzyl)oxy]-2,6-dimethyl-N-[2-(morpholin-4-yl)propyl]imidazo[1,2-a]-pyridine-3-carboxamide]
MEC: 0.30 µM

SMILES: Cc1nc2c(OCc3c(F)cccc3F)cc(Cl)cn2c1C(=O)NCC(N)CC(F)(F)F (racemic) [Example 147, rac-N-(2-amino-4,4,4-trifluorobutyl)-6-chloro-8-[(2,6-difluorobenzyl)oxy]-2-methylimidazo[1,2-a]pyridine-3-carboxamide]
MEC: 0.30 µM

SMILES: Cc1cc(OCc2c(F)cccc2F)c2nc(C)c(C(=O)NCC(N)COC(C)C)n2c1 (racemic) [Example 206, rac-N-(2-Amino-3-isopropoxypropyl)-8-[(2,6-difluorobenzyl)oxy]-2,6-dimethylimidazo[1,2-a]-pyridine-3-carboxamide]
MEC: 0.30 µM

Other lines, results leading:

MEC: 1.00 µM
SMILES: Cc1nc2c(OCc3c(F)cccc3F)cccn2c1C(=O)NCC(C(C)C)N(C)C (racemic) [Example 142, rac-8-[(2,6-difluorobenzyl)oxy]-N-[2-(dimethyl-amino)-3-methylbutyl]-2-methylimidazo[1,2-a]-pyridine-3-carboxamide]

MEC: 0.30 µM
SMILES: CCC(C)(N)CNC(=O)c1c(C)nc2c(OCc3c(F)cccc3F)cc(Cl)cn12 (racemic) [Example 157, rac-N-(2-amino-2-methylbutyl)-6-chloro-8-[(2,6-difluorobenzyl)oxy]-2-methylimidazo[1,2-a]-pyridine-3-carboxamide]

MEC: 0.30 µM
SMILES: COCC(C)(N)CNC(=O)c1c(C)nc2c(OCc3c(F)cccc3F)cc(Cl)cn12 (racemic) [Example 159, rac-N-(2-amino-3-methoxy-2-methylpropyl)-6-chloro-8-[(2,6-difluorobenzyl)oxy]-2-methylimidazo[1,2-a]pyridine-3-carboxamide]

MEC: 0.30 µM
SMILES: COCC(C)(N)CNC(=O)c1c(C)nc2c(OCc3c(F)cccc3F)cc(C)cn12 (racemic) [Example 166, rac-N-(2-amino-3-methoxy-2-methylpropyl)-8-[(2,6-difluorobenzyl)oxy]-2,6-dimethylimidazo[1,2-a]pyridine-3-carboxamide]

MEC: 0.10 µM
SMILES: Cc1nc2c(OCc3c(F)cccc3F)cccn2c1C(=O)NCC(C)(N)CC(C)C (racemic) [Example 202, rac-N-(2-Amino-2,4-dimethylpentyl)-8-[(2,6-difluorobenzyl)oxy]-2-methylimidazo[1,2-a]pyridine-3-carboxamide]

MEC: 0.30 µM
SMILES: Cc1nc2c(OCc3c(F)cccc3F)cccn2c1C(=O)NCC(N)COC(C)C (racemic) [Example 205, rac-N-(2-Amino-3-isopropoxypropyl)-8-[(2,6-difluorobenzyl)oxy]-2-methylimidazo[1,2-a]-pyridine-3-carboxamide]

MEC: 1.00 µM
SMILES: Cc1nc2c(OCc3c(F)cccc3F)cccn2c1C(=O)NCC(N)C(F)(F)F (racemic) [Example 207, rac-N-(2-Amino-3,3,3-trifluoropropyl)-8-[(2,6-difluorobenzyl)oxy]-2-methylimidazo[1,2-a]-pyridine-3-carboxamide]

MEC: 1.00 µM
SMILES: COCC(C)(N)CNC(=O)c1c(C)nc2c(OCc3c(F)cccc3F)cccn12 (racemic) [Example 213, rac-N-(2-Amino-3-methoxy-2-methylpropyl)-8-[(2,6-difluorobenzyl)oxy]-2-methylimidazo[1,2-a]-pyridine-3-carboxamide]
